Measurements reported in patent US11000492B2, “Fluorenone compound for the treatment of gout” (The Trustees of Columbia University in the City of New York, priority 2015, dated 2021).
“Also recorded” adds a separate entry of the source. Where two headings read alike, the source gives them in different places.

Tests used:
serum uric acid [1] = settings: cited from earlier work; for patients meeting target serum levels (serum uric acid): patients with at least one measurable tophus
serum urate = settings: cited from earlier work
[2] = humans; originally studied for treating brain edema; cited from earlier work
gout = experiment: Administration of DPOFA to subjects afflicted with or at risk of gout (Examples 3-6); type: in vivo, human
Experimental: An amount of compound DPOFA is administered to a human subject afflicted with gout. […] An amount of compound DPOFA in combination with allopurinol or febuxostat is administered to a subject afflicted with gout. […] An amount of compound DPOFA is administered to a subject with a history of gout flares or who is at risk for a gout flare. […] An amount of compound DPOFA in combination with allopurinol or febuxostat is administered to a subject with history of gout flares or who is at risk for a gout flare.

[3] = tested on: uric acid levels in the urine; experiment: Uric acid levels in the urine of guinea pig; type: in vivo
Text: The fluorenone DPOFA, (R)-(+)-(5,6-dichloro-2,3,9,9a-tetrahydro-3-oxo-9a-propyl-1H-fluoren-7-yl)oxy]acetic acid, was originally developed for trauma-induced brain damage.

serum uric acid [4] = experiment: Serum uric acid after systemic intraperitoneal administration in guinea pigs; type: in vivo
[5] = particularly in the 400 mg group

## Cc1nc(-c2ccc(OCC(C)C)c(C#N)c2)sc1C(=O)O [febuxostat]
Serum uric acid [1]; febuxostat alone
  patients meeting target serum levels (serum uric acid): 46%

## CCCN(CCC)S(=O)(=O)c1ccc(C(=O)O)cc1 [probenecid]
Serum urate; allopurinol combination treatment group, 10/27
  patients achieving target serum urate concentrations (<0.36 mmol/l): 37%
Serum urate; human, in vivo
  adverse effects, share of subjects tested: 19%
Serum urate; probenecid monotherapy group, 10/30
  patients achieving target serum urate concentrations (<0.36 mmol/l): 33%

## CCC[C@]12CCC(=O)C=C1c1c(cc(OCC(=O)O)c(Cl)c1Cl)C2 [DPOFA]
[2]
  crossing of the blood-brain barrier: failed to cross the blood-brain barrier
gout; human subject afflicted with gout, Example 3
  serum uric acid levels in subject afflicted with gout: reduces serum uric acid levels
gout; in combination with allopurinol or febuxostat, Example 4
  treating gout, combination versus each compound alone: more effective in treating the gout than each compound administered alone
gout; in combination with allopurinol or febuxostat, Example 6
  preventing gout, combination versus each compound alone: more effective in preventing the gout than each compound administered alone
gout; subject with a history of gout flares or at risk, Example 5
  prevention of gout flares: effective to prevent gout flares
[3]
  uric acid levels in the urine: increases uric acid levels in the urine
Serum uric acid [4]; 20 mg intraperitoneally
  reduction in the serum uric acid level: pronounced reduction; also recorded: reduced uric acid levels in the blood
Serum uric acid [4]; following systemic administration of 20 mg
  time point of maximum reduction of uric acid: 7 h

## O=C(O)CSc1nnc(Br)n1-c1ccc(C2CC2)c2ccccc12 [lesinurad]
Serum uric acid [1]; 200 mg dose
  improvement at six months (primary endpoint): failed to show a significant improvement
Serum uric acid [1]; combination with febuxostat
  proportion of subjects achieving a complete resolution of at least one tophus by month 12: did not result in a significant difference
Serum uric acid [1]; lesinurad 400 mg in combination with febuxostat
  patients meeting target serum levels (serum uric acid): 76%
Serum uric acid [1]; [5]
  rate of renal-related AEs: higher rate of renal-related AEs
  serum creatinine levels: rise in serum creatinine levels
